From patent publication EP0866075B1, “Method to treat microbial infections by uncoupling of phosphotransferase system and appropriate agents therefor” (Arpida AG,, priority 1997, dated 1998)
Converted amounts (≈) assume the structure as drawn. No end group written: not given here.

Test system: E. coli K-12 UT580
Experiment: microbe, parasite or virus in culture
Settings: Escherichia coli, K12UT580, 24 h, read-out: growth inhibition MIC
Experimental: Growth inhibition assay. An over night culture of E. coli K-12 UT580 grown in LB-medium was diluted 1:30 into soft agar (0.7% agarose in LB broth) at 40°C, and 3 ml of the diluted cell suspension were spread an LB agar plates. Filter discs (4.4 mm diameter) were placed in regular intervals on the solidified top agar. To each filter was added 10 µl of one of the different peptide stock solutions (20 µM to 80 µM). The agar plates were incubated over night at 37°C. The area of the clear zone around each filter disc was determined. The clear area is taken as a measure for the growth inhibitory activity of the peptide.
Growth inhibition of E. coli K12 UT580. Peptides were added to filter discs and placed onto a cell culture in LB soft agar. The clear zones are indicative of growth inhibition (panel A).

Row | Molecule | MIC
1 | CN(C)[C@@H]1C(O)=C(C(N)=O)C(=O)[C@@]2(O)C(O)=C3C(=O)c4c(O)cccc4[C@@](C)(O)[C@H]3C[C@@H]12 [tetracycline] | 2.5 µM (≈ 1.11 µg/mL)

Biological target: T1, enzyme I (Escherichia coli, UniProt P08839)
T1 construct: 3 µM each of purified HPr and enzyme I (Mao et al., 1995); made in house
Experiment: biochemical
Design: species or system E. coli
Settings: not given
From the text: Fig. 2. Assays for the screening, selection and characterization of inhibitory compounds from combinatorial libraries. Reaction products that can be determined experimentally are boxed. The inhibitory compound X can be in soluble form, immobilized on a filamentous phage, or bound to a microtiter well. The transporter for GlcNAc (shaded in grey) contains the IIA, IIB and IIC functional units as domains of a single polypeptide chain. • (a) Binding of Enzyme I to immobilized ligands, e.g. filamentous phages from a phage display library or synthetic peptides from a combinatorial peptide library was detected using [^1251]-Enzyme I and autoradiography. • (b) Phosphorylation by Enzyme I. To identify peptides and filamentous phages displaying a peptide which can be phosphorylated by Enzyme 1, support based peptide libraries and immobilized peptide-displaying phages were incubated over night with enzyme I in the presence of [^32P]phosphoenolpyruvate, and the phosphorylated species were detected with a PhosphorImager. […] A conventional and well established assay to colorimetrically detect the formation of inorganic phosphate has been adapted to the specific needs. The assay can be performed in microtiter plates and quantitated with a microplate photoreader. Another assay to monitor phosphatase activity of soluble compounds is based on the detection of pyruvate which is continuously produced from phosphoenolpyruvate whenever enzyme I is dephosphorylated. The enzyme I-specific phosphatase activity of soluble compounds can be detected from the pyruvate burst. The rate of pyruvate formation is monitored with lactate dehydrogenase and NADH. The assay can be performed in microtiter plates and quantitated with a microplate photoreader. • (d) Inhibition of in vitro PTS activity. The inhibitory activity of soluble compounds can be measured quantitatively in the sugar phosphotransferase assay in the presence of the purified PTS proteins and with [^14C]GlcNAc ([^14C]N-acetyl-glucosamine) or (14C] Glc ([^14C]glucose) as terminal phosphate acceptor (Emi et al., 1982). • (e) Inhibition of PTS activity in bacteria. Compounds that specifically interfere with the PTS can also be detected in bacteria. Indicator E. coli (or any other bacteria) will be plated an two defined minimal salts media containing either glucose or a nonPTS Substrate e.g. lactose as the only carbon source. Compounds from chemical libraries are applied to both cultures.
Inhibition of phosphotransferase activity by soluble peptides. This assay measures the inhibition of enzyme I dependent sugar phosphorylation activity. […] The purified N-acetylglucosamine transporter (II^GlcNAc) of E.coli (Mukhija and Erni, 1996) was used as the sugar specific component. The reaction mixture contained per 100 µl, 100 µg phosphatidyl glycerol from egg yolk (Sigma), 50 mM KPi, pH 7.5, 2.5 mM dithiothreitol, 2.5 mM NaF, 5 mM MgCl2, […] (potassium salt, Sigma), 0.5 mM [U-^14C]GlcNAc (New England Nuclear; 56.3 mCi/mmol, diluted to 1000 cpm/nmol), and 3 µM each of purified HPr and enzyme I (Mao et al., 1995). The reaction was started by addition of 0.1 µg of II^GlcNAc. After incubation for 30 min at 37°C, the reaction was stopped by adding 1 ml ice-cold water. GlcNAc-6-Phosphate was separated from free GlcNAc by anion-exchange chromatography on AG-1-X2 (50-100 mesh, Biorad). Activity is expressed as nmoles of sugar-P formed after 30 min. The HPr concentration was adjusted such that it was rate limiting in the overall phosphotransferase reaction. The inhibitory peptides were added to concentrations of 25 µM to 10 mM. Phosphorylation of GlcNAc in the absences of peptide was taken as 100%.

Row | Molecule | IC50
2 | KKFHLRK [peptide 1, KKFHLRK] | 150 µM

Same assay, conditions: peptides from support-based combinatorial libraries; 30 min at 37°C, HPr rate limiting

Row | Molecule | inhibition IC50
3 | KKFALRK [compound 2, KKFALRK] | none

Same assay, conditions: peptides from support-based combinatorial libraries; 30 min at 37°C, HPr rate limiting; read-out: inhibition IC50

Row | Molecule | IC50
4 | KGWHKRKK [compound 6] | 530 µM
5 | KKFDLRK [compound 3, KKFDLRK] | 820 µM
6 | KKFHIRKR [compound 9] | 160 µM
7 | KKWHKRKK [compound 8] | 440 µM
8 | KKWHLRKR [compound 5] | 30 µM
9 | KKWHRRKK [compound 7] | 300 µM

Same assay, conditions: peptides identified by phage display; 30 min at 37°C, HPr rate limiting; read-out: inhibition IC50

Row | Molecule | IC50
10 | Ac-DGARLHYLF [compound 23] | 7600 µM
11 | DGARLHYLF [compound 22] | 1200 µM
12 | GLRFGKTRVHYLVLG [compound 14] | 25 µM
13 | KISRHGKRGK [compound 18] | 140 µM
14 | KISRHGRPTG [compound 19] | 1070 µM
15 | KMSRHRKPGA [compound 16] | 100 µM
16 | MSRHRN [compound 29, MSRHRN] | 760 µM
17 | RHITLF [compound 28, RHITLF] | 1380 µM
18 | RHITSL [compound 27, RHITSL] | 650 µM
19 | RHRTLF [compound 25, RHRTLF] | 410 µM
20 | RHWSIF [compound 24, RHWSIF] | 400 µM
21 | RHYLLF [compound 26, RHYLLF] | 500 µM
22 | RIHFIPRRGR [compound 20] | 280 µM
23 | RLHYLF [compound 21, RLHYLF] | 375 µM
24 | SGRKSTRVHHWLLVL [compound 15] | 60 µM

Test system: E. coli K-12 UT580
Experiment: Growth inhibition assay (filter discs on LB soft agar)
Format: cell-based
Settings: E. coli K-12 UT580, LB agar, over night at 37°C
From the text: Fig. 4. Growth inhibition of E. coli K12 UT580. […]

Row | Molecule | growth inhibition MIC
25 | KKFHLRK [peptide 1, KKFHLRK] | 125.8 µM
26 | KKWHLRKR [compound 5] | 63.0 µM
